From PMC7719162, “Positioning of an unprecedented spiro[5.5]undeca ring system into kinase inhibitor space” (Scientific Reports, 2020)
Read-outs that look alike come from different tables or passages of the source.

Experiments:
GSK3b = target: T1, GSK3b (Homo sapiens, UniProt P49841); conditions: cited from earlier work
T1 construct: purchased Reaction Biology Corp

JNK3 = target: T2, JNK3 (Homo sapiens, UniProt P53779); conditions: cited from earlier work
T2 construct: purchased Reaction Biology Corp

PKCa = target: T3, PKCa (Homo sapiens, UniProt P17252); conditions: cited from earlier work
T3 construct: purchased Reaction Biology Corp

ROCK1 [1] = target: T4, ROCK1 (Homo sapiens, UniProt Q13464); conditions: cited from earlier work
T4 construct: purchased Reaction Biology Corp

CDK2/cyclin O [2] = target: T5, CDK2/cyclin O (Homo sapiens, UniProt P24941); conditions: cited from earlier work
T5 construct: purchased Reaction Biology Corp

PI3K (p110a(E545K)/p85a) = target: T6, PI3K (p110a(E545K)/p85a) (Homo sapiens, UniProt P42336, E545K); test: Kinase panel assay (lipid kinase); assay type: biochemical; conditions: 30 μM compound, ATP 10 μM, duplicates Data 1/Data 2
T6 construct: purchased Reaction Biology Corp

PI4K2A = target: T7, PI4K2A (Homo sapiens, UniProt Q9BTU6); test: Kinase panel assay (lipid kinase); assay type: biochemical; conditions: 30 μM compound, ATP 10 μM, duplicates Data 1/Data 2
T7 construct: purchased Reaction Biology Corp
Method: (§1) Every inhibitory activity of tested compounds was measured by radiolabelled method of Reaction Biology Corp). The radiolabelled ATP ([γ-^33P] ATP) replaced a substrate with ^33P-phosphorylated substrate so that the activity of a kinase was measured from the radiolabelled phosphorylated substrate. Kinase panel assay was tested at 30 μM testing compounds with an ATP concentration of 10 μM and a substrate concentration of 10 μM. % Residual activity against GSK3β was measured at 10 uM compounds 1 and 2. […] Curve fits of control compounds were performed where the enzyme activities at the highest concentration of compounds were less than 65%. The concentration of DMSO was controlled and raw data, % kinase activity was calculated relative to DMSO controls.

PIP5K1C = target: T8, PIP5K1C (Homo sapiens, UniProt O60331); test: Kinase panel assay (lipid kinase); assay type: biochemical; conditions: 30 μM compound, ATP 10 μM, duplicates Data 1/Data 2
T8 construct: purchased Reaction Biology Corp
Method: as §1

PI3KC3 = target: T9, PI3KC3 (Homo sapiens, UniProt Q8NEB9); test: Kinase panel assay (lipid kinase); assay type: biochemical; conditions: 30 μM compound, ATP 10 μM, duplicates Data 1/Data 2
T9 construct: purchased Reaction Biology Corp
Method: as §1

PIP5K1A = target: T10, PIP5K1A (Homo sapiens, UniProt Q99755); test: Kinase panel assay (lipid kinase); assay type: biochemical; conditions: 30 μM compound, ATP 10 μM, duplicates Data 1/Data 2
T10 construct: purchased Reaction Biology Corp
Method: as §1

PI3KC2A = target: T11, PI3KC2A (Homo sapiens, UniProt O00443); test: Kinase panel assay (lipid kinase); assay type: biochemical; conditions: 30 μM compound, ATP 10 μM, duplicates Data 1/Data 2
T11 construct: purchased Reaction Biology Corp
Method: as §1

EIF2AK2 = target: T12, EIF2AK2 (Homo sapiens, UniProt P19525); test: Kinase panel assay (radiolabelled); assay type: biochemical; conditions: 30 μM compound, ATP 10 μM, duplicates Data 1/Data 2
T12 construct: purchased Reaction Biology Corp

ROCK2 = target: T13, ROCK2 (Homo sapiens, UniProt O75116); test: Kinase panel assay (radiolabelled); assay type: biochemical; conditions: ATP 10 μM
T13 construct: purchased Reaction Biology Corp

ROCK1 [3] = target: T4, ROCK1; test: Kinase panel assay (radiolabelled); assay type: biochemical; conditions: ATP 10 μM
TRKA-TFG (TRK-T3) = target: T14, TRKA-TFG (TRK-T3) (Homo sapiens, UniProt P04629+Q92734); test: Kinase panel assay (radiolabelled); assay type: biochemical; conditions: 30 μM compound, ATP 10 μM, duplicates Data 1/Data 2
T14 construct: TFG (fusion partner); purchased Reaction Biology Corp

DAPK2 = target: T15, DAPK2 (Homo sapiens, UniProt Q9UIK4); test: Kinase panel assay (radiolabelled); assay type: biochemical; conditions: ATP 10 μM
T15 construct: purchased Reaction Biology Corp

PI3Ka (p110a/p85a) = target: T16, PI3Ka (p110a/p85a) (Homo sapiens, UniProt P42336); test: Kinase panel assay (lipid kinase); assay type: biochemical; conditions: 30 μM compound, ATP 10 μM, duplicates Data 1/Data 2
T16 construct: purchased Reaction Biology Corp

COX-2 = test: Western blot of COX-2 in LPS-induced BV-2 cells; assay type: cell-based, murine; conditions: 0.01 to 1 uM
Method: Western blot analysis was performed to see the protein expression of the iNOS and COX-2 in the BV2 cells. BV2 cells were seeded in a 6 well plate at the density of 6 × 10^5 cells/well overnight and cells were treated as mentioned earlier in the cell treatment section and this time treatment was performed for 6 h only. After 6 h, cells were harvested and lysed with lysis buffer containing (RIPA, protease inhibitor & phosphatase inhibitor), protein estimation was performed using biorad assay and the 30 µg of total protein was separated by 8% SDS-PAGE gel electrophoresis, transferred to nitrocellulose membranes, and incubated with primary antibodies against tubulin, iNOS, COX-2, and α-tubulin. […] membranes were incubated with horseradish peroxidase-conjugated secondary antibodies, and protein bands were visualized using ECL Western Blotting Detection Reagents (Amersham Pharmacia Biotech). Quantitative analysis of the protein bands was quantified using Image Master 2D Elite software (version 3.1, Amersham Pharmacia Biotech).

TRKC = target: T17, TRKC (Homo sapiens, UniProt Q16288); test: Kinase panel assay (radiolabelled); assay type: biochemical; conditions: ATP 10 μM
T17 construct: purchased Reaction Biology Corp

CDK2/cyclin O [4] = target: T5, CDK2/cyclin O; test: Kinase panel assay (radiolabelled); assay type: biochemical; conditions: ATP 10 μM
TNF-α = test: Secreted TNF-α ELISA in LPS-induced BV-2 cells; assay type: cell-based, murine
Method: (§2) To evaluate the secreted level of Prostaglandin E2 (PGE2), Tumor necrosis factor (TNF-α), Interleukin (IL-6), Interleukin (IL-1β), BV2 cells were seeded in a 6 well plate at the density of 1.5 × 10^6 cells/well in DMEM and incubated for 24 h. Seeded cells sere pretreated and, activated with LPS for next 24 h. conditioned medium from treated cells were collected and stored at -80 degree for longer period of time. The amount of TNF-α, IL-1β, PGE2,and IL-6 were evaluated using the competitive enzyme immunoassay kit. PGE2 kit were obtained from (Cayman Chemical, Ann Arbor, MI, USA) and TNF-α, IL-1β, and IL-6 were measured using ELISA development kits (R&D Systems, Minneapolis, MN, USA). All the protocol was exactly followed as written in the manual.

EIF2AK3 = target: T18, EIF2AK3 (Homo sapiens, UniProt Q9NZJ5); test: Kinase panel assay (radiolabelled); assay type: biochemical; conditions: 30 μM compound, ATP 10 μM, duplicates Data 1/Data 2
T18 construct: purchased Reaction Biology Corp

IL-1β = test: Secreted IL-1β ELISA in LPS-induced BV-2 cells; assay type: cell-based, murine
Method: as §2

JNK1 = target: T19, JNK1 (Homo sapiens, UniProt P45983); test: Kinase panel assay (radiolabelled); assay type: biochemical; conditions: ATP 10 μM
T19 construct: purchased Reaction Biology Corp

[5] = read-out: % Enzyme Activity (relative to DMSO controls)
[6] = 30 μM compound, duplicates Data 1/Data 2
[7] = 30 μM compound, duplicates Data 1/Data 2, read-out: % Enzyme Activity (relative to DMSO controls)
[8] = 30 μM, average ± SD, read-out: % Residual Activity at 30 μM

T19 sequence (P45983 whole entry): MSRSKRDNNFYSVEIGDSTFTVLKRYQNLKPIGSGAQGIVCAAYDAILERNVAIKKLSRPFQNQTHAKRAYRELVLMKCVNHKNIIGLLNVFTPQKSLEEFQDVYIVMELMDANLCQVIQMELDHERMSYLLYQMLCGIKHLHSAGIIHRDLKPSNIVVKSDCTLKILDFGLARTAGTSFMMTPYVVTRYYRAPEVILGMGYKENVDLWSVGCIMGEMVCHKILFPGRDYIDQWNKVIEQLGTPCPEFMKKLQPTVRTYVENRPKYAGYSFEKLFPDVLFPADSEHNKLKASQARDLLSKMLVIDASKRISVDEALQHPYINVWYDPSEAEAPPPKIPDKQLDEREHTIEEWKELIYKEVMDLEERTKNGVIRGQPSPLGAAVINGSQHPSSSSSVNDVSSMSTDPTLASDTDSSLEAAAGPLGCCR
T13 sequence (O75116 whole entry): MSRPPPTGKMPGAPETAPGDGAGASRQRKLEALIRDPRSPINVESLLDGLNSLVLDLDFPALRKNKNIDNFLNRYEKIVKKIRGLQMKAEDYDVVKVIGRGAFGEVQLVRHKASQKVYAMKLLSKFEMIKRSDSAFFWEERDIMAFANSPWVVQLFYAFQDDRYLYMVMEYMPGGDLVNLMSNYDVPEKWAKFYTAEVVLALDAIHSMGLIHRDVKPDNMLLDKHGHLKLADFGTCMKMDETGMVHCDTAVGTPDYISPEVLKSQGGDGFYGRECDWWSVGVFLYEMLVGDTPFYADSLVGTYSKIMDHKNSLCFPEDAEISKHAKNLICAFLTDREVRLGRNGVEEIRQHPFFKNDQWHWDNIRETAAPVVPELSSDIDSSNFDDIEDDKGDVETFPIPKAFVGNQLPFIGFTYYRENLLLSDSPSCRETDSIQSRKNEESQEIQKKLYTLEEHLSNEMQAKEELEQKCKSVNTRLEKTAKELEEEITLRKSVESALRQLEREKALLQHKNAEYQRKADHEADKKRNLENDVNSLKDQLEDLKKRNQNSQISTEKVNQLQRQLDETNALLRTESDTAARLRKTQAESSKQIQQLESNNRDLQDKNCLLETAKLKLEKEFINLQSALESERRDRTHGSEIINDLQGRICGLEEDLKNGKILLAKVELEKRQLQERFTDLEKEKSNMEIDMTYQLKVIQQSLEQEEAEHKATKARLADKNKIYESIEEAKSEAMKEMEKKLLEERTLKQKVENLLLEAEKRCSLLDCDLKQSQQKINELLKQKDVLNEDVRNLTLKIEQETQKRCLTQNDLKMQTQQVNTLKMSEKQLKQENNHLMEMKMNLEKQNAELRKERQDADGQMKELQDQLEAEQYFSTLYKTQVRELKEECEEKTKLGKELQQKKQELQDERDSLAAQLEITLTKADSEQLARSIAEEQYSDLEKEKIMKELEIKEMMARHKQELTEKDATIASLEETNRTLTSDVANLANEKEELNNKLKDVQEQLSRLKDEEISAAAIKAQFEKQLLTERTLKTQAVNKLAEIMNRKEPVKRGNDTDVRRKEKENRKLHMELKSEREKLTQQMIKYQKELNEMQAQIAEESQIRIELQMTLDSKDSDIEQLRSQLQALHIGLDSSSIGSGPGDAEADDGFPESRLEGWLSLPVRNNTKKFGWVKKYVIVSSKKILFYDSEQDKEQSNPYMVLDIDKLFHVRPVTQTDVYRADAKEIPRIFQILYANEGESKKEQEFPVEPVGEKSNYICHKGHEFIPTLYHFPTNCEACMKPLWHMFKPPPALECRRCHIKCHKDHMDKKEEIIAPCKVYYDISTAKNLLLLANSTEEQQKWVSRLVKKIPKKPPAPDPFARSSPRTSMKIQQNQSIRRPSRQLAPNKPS
T15 sequence (Q9UIK4 whole entry): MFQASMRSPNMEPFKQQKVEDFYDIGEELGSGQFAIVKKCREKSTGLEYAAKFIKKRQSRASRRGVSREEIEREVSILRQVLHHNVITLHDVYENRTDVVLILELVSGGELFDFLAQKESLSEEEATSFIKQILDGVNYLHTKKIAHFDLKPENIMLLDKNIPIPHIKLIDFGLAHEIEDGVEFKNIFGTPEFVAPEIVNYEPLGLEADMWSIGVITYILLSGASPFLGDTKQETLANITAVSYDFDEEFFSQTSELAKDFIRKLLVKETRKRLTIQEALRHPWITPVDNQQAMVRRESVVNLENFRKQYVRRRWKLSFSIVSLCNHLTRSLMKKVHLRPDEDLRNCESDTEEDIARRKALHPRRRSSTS
T17 sequence (Q16288 32-839): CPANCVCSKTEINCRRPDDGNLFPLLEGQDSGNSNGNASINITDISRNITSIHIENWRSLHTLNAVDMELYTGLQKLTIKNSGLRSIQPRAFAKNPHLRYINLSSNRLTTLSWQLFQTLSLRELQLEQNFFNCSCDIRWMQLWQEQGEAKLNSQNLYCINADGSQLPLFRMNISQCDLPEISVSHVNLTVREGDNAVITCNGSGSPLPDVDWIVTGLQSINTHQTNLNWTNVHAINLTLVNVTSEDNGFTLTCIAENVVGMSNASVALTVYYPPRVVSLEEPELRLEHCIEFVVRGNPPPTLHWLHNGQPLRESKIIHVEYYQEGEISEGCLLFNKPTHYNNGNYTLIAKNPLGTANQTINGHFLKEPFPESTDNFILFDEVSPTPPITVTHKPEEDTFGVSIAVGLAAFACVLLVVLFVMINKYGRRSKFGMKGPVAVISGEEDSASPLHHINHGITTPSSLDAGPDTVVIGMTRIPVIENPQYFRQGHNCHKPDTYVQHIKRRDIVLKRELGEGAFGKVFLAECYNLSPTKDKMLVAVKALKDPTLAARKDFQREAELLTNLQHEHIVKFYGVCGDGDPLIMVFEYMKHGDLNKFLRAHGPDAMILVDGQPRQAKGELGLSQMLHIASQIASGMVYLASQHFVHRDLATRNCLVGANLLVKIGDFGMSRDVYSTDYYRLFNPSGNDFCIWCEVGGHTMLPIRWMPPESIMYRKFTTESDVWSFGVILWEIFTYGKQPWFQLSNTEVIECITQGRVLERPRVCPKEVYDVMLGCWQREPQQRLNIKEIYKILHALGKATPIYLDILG
T4 sequence (Q13464 whole entry): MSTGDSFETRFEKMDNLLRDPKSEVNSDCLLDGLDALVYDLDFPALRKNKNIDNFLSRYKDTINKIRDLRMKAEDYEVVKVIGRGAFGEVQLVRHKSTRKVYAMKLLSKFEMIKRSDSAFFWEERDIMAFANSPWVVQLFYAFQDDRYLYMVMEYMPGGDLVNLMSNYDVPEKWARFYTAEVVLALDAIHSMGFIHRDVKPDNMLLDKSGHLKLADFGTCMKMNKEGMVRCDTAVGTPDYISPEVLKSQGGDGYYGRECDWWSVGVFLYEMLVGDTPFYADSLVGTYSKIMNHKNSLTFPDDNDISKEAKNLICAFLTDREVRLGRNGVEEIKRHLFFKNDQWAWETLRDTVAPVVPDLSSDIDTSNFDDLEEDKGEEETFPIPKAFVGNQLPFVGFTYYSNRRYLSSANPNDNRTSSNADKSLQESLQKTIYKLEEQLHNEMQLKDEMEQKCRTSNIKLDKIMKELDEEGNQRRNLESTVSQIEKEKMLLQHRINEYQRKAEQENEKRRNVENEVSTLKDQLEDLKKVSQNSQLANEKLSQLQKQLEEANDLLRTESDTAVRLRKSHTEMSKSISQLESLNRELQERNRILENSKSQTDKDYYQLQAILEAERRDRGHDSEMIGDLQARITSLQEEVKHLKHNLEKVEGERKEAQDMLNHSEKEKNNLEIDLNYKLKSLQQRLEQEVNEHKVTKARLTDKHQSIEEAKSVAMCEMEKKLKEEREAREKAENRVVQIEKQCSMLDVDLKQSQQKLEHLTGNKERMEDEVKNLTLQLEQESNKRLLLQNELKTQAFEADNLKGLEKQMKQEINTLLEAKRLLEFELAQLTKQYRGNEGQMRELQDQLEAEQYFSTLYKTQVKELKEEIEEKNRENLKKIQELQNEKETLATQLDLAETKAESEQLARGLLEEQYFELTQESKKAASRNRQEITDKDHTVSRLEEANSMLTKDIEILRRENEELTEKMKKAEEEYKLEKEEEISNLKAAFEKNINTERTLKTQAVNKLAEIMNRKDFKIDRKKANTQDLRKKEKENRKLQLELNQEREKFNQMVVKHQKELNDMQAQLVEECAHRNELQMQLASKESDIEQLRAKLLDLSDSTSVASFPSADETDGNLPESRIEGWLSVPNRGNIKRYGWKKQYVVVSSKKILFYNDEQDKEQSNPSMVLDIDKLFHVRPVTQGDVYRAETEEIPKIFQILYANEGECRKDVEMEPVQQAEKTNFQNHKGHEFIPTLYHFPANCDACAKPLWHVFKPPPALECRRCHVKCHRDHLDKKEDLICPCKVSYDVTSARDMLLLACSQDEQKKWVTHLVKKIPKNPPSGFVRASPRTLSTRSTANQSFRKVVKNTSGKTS
T14 sequence (Q92734+P04629 fused): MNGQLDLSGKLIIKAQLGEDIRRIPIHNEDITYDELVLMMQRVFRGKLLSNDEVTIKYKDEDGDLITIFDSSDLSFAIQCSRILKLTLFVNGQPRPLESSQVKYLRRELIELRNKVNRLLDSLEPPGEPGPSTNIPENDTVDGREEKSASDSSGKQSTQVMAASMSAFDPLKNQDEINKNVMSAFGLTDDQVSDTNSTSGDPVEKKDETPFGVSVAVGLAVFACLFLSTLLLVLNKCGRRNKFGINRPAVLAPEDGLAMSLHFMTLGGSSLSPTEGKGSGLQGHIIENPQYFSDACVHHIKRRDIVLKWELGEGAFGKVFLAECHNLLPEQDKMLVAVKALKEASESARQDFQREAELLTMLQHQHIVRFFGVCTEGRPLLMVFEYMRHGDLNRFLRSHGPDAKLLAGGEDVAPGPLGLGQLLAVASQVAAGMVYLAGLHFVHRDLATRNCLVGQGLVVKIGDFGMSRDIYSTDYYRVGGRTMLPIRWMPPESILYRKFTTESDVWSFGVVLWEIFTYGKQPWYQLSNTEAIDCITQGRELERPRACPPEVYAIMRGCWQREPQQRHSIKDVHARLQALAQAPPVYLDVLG

O=C1C=CC2(C=C1)OCC(Cc1cc(C(F)(F)F)cc(C(F)(F)F)c1)C(=O)N2c1ccccc1 (racemic) [1c]
inhibitory activity on GSK-3β (GSK3b; 30 μM): did not show any inhibitory activity | % Residual Activity at 30 μM (GSK3b): 107.5 ± 1.9% | % Residual Activity at 30 μM (JNK3): 72.0 ± 2.0% | % Residual Activity at 30 μM (PKCa): 45.6 ± 1.2% | % Residual Activity at 30 μM (ROCK1 [1]): 97 ± 2.9% | % Residual Activity at 30 μM (CDK2/cyclin O [2]): 43.1 ± 1.0%

O=C1C=CC2(C=C1)OCC(Cc1cn(-c3cccc(Cl)c3)nn1)C(=O)N2c1ccccc1 (centres unmarked) [2d, 3-((1-(3-Chlorophenyl)-1H-1,2,3-triazol-4-yl)methyl)-5-phenyl-1-oxa-5-azaspiro[5.5]undeca-7,10-diene-4,9-dione]
% Enzyme Activity (relative to DMSO controls) (PI3K (p110a(E545K)/p85a)): 206.92% | remaining activity at 30 µM (PI3K (p110a(E545K)/p85a); [5]): 206% | % Enzyme Activity (relative to DMSO controls) (PI4K2A): 74.47% | remaining activity at 30 µM (PI4K2A; [5]): 75.9% | % Enzyme Activity (relative to DMSO controls) (PIP5K1C): 87.90% | remaining activity at 30 µM (PIP5K1C; [5]): 88.2% | % Enzyme Activity (relative to DMSO controls) (PI3KC3): 98.59% | remaining activity at 30 µM (PI3KC3; [5]): 99.8% | % Enzyme Activity (relative to DMSO controls) (PIP5K1A): 84.84% | remaining activity at 30 µM (PIP5K1A; [5]): 86% | % Enzyme Activity (relative to DMSO controls) (PI3KC2A): 123.51% | remaining activity at 30 µM (PI3KC2A; [5]): 122% | % Enzyme Activity (relative to DMSO controls) (EIF2AK2): 100.73% | remaining activity at 30 µM (EIF2AK2; [5]): 101% | % Enzyme Activity (relative to DMSO controls) (ROCK2; [6]): 98.38% | remaining activity at 30 µM (ROCK2; [7]): 100% | remaining activity at 30 µM (ROCK2; [8]): 99.4 ± 1.5% | % Enzyme Activity (relative to DMSO controls) (ROCK1 [3]; [6]): 101.05% | remaining activity at 30 µM (ROCK1 [3]; [7]): 105% | remaining activity at 30 µM (ROCK1 [3]; [8]): 103 ± 3.1% | % Enzyme Activity (relative to DMSO controls) (TRKA-TFG (TRK-T3)): 102.82% | remaining activity at 30 µM (TRKA-TFG (TRK-T3); [5]): 109% | % Enzyme Activity (relative to DMSO controls) (DAPK2; [6]): 109.81% | remaining activity at 30 µM (DAPK2; [7]): 111% | remaining activity at 30 µM (DAPK2; [8]): 110.2 ± 0.6% | % Enzyme Activity (relative to DMSO controls) (PI3Ka (p110a/p85a)): 250.92% | remaining activity at 30 µM (PI3Ka (p110a/p85a); [5]): 252% | COX-2 expression level (COX-2): the regulation of COX-2 showed concentration dependency | % Enzyme Activity (relative to DMSO controls) (TRKC; [6]): 102.60% | remaining activity at 30 µM (TRKC; [7]): 108% | remaining activity at 30 µM (TRKC; [8]): 105 ± 3.9% | % Enzyme Activity (relative to DMSO controls) (CDK2/cyclin O [4]; [6]): 54.15% | remaining activity at 30 µM (CDK2/cyclin O [4]; [7]): 54.4% | remaining activity at 30 µM (CDK2/cyclin O [4]; [8]): 54.3 ± 0.1% | TNF-α level (TNF-α): concentration-dependent manner | % Enzyme Activity (relative to DMSO controls) (EIF2AK3): 70.64% | remaining activity at 30 µM (EIF2AK3; [5]): 70.8% | IL-1β level (IL-1β): concentration-dependent manner | % Enzyme Activity (relative to DMSO controls) (JNK1; [6]): 82.67% | remaining activity at 30 µM (JNK1; [7]): 82.7% | remaining activity at 30 µM (JNK1; [8]): 82.7 ± 0.1%
